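Method: 48-hour compound exposure of cells in 96-well plates, five concentrations, linear interpolation of endpoints. GI50: concentration for 50% inhibition of growth.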 The source made the active and inactive calls. Cut-off read from the data, not from the text of the source: active = GI50 up to about 1.1 µM and inactive = higher.
How the values were obtained:
Assay in all cases: NCI-60 cell line screen, 48 h
[1] = test system: UACC-62
[2] = test system: MDA-MB-435
[3] = test system: U-251
[4] = test system: HOP-92
[5] = test system: SN12C
[6] = test system: SW-620
[7] = test system: BT-549
[8] = test system: NCI-H522
[9] = test system: EKVX
[10] = test system: T47D
[11] = test system: TK-10
[12] = test system: OVCAR-4
[13] = test system: SR
[14] = test system: ACHN
[15] = test system: A549
[16] = test system: HCC 2998
[17] = test system: SF-295
[18] = test system: MCF7
[19] = test system: NCI/ADR-RES
[20] = test system: KM12

Row | Structure (SMILES) | GI50 [1] | GI50 [2] | GI50 [3] | GI50 [4] | GI50 [5] | GI50 [6] | GI50 [7] | GI50 [8] | GI50 [9] | GI50 [10] | GI50 [11] | GI50 [12] | GI50 [13] | GI50 [14] | GI50 [15] | GI50 [16] | GI50 [17] | GI50 [18] | GI50 [19] | GI50 [20]
1 | CC[C@@]1(O)C(=O)OCc2c1cc1n(c2=O)Cc2c-1nc1ccccc1c2/C=N\NC(=O)C(C)N (stereo not given in full) | < 0.01 µM (active) | 1.61 µM (inactive) | < 0.0195 µM (active) | 0.179 µM (active) | < 0.01 µM (active) | 1.37 µM (inactive) | 0.303 µM (active) | 0.432 µM (active) | 11.9 µM (inactive) | < 0.0157 µM (active) | > 29.3 µM (inactive) | 7.1 µM (inactive) | < 0.01 µM (active) | < 0.0216 µM (active) | 0.405 µM (active) | 0.332 µM (active) | < 0.0371 µM (active) | < 0.022 µM (active) | 0.241 µM (active) | 5.36 µM (inactive)
2 | Nc1nc(N)c(N=O)c(Nc2ccc(O)cc2)n1 | 41 µM (inactive) | 38.7 µM (inactive) | > 52 µM (inactive) | 20.8 µM (inactive) | 31.1 µM (inactive) | > 60.5 µM (inactive) | > 40.4 µM (inactive) | 15.9 µM (inactive) | > 69.8 µM (inactive) | 14.9 µM (inactive) | > 63 µM (inactive) | > 48.8 µM (inactive) | 14.8 µM (inactive) | 46.2 µM (inactive) | > 81.3 µM (inactive) | 72.3 µM (inactive) | > 44.7 µM (inactive) | 5.97 µM (inactive) | 1.58 µM (inactive) | > 57.4 µM (inactive)
3 | O=[N+]([O-])c1cc(Cl)cc2cc(Br)cnc12 | 23.2 µM (inactive) | > 31.6 µM (inactive) | 20.1 µM (inactive) | 5.46 µM (inactive) | > 31.6 µM (inactive) |  | 28.1 µM (inactive) | 29.6 µM (inactive) | > 31.6 µM (inactive) | > 31.6 µM (inactive) | 27.7 µM (inactive) | > 31.6 µM (inactive) | > 31.6 µM (inactive) | > 31.6 µM (inactive) | > 31.6 µM (inactive) | > 31.6 µM (inactive) | 21.9 µM (inactive) | > 31.6 µM (inactive) | > 31.6 µM (inactive) | > 10 µM (inactive)
4 | Cn1c(-c2ccccc2)cc(-c2ccc3c(c2)OCO3)c1-c1cccs1 | > 100 µM (inactive) | > 100 µM (inactive) | > 100 µM (inactive) | > 100 µM (inactive) | > 100 µM (inactive) | > 100 µM (inactive) | > 100 µM (inactive) |  | > 100 µM (inactive) | > 100 µM (inactive) | > 100 µM (inactive) | > 100 µM (inactive) | > 100 µM (inactive) | > 100 µM (inactive) | > 100 µM (inactive) | > 100 µM (inactive) | > 100 µM (inactive) | > 100 µM (inactive) | > 100 µM (inactive) | > 100 µM (inactive)
5 | CC(C)(Oc1ccc(Cl)cc1)C(=O)N(C(=O)N1CCC(c2ccccc2)CC1)c1ccccc1 | > 57.5 µM (inactive) | > 100 µM (inactive) | > 25.2 µM (inactive) | > 100 µM (inactive) | 27.4 µM (inactive) | 22.4 µM (inactive) | 23.4 µM (inactive) |  | 11.1 µM (inactive) | 7 µM (inactive) | > 30.1 µM (inactive) | > 100 µM (inactive) | > 100 µM (inactive) | 40.6 µM (inactive) | 34.5 µM (inactive) | 41.4 µM (inactive) | 23.8 µM (inactive) | 23.7 µM (inactive) | > 29.6 µM (inactive) | 15.5 µM (inactive)
6 | O=[N+]([O-])c1ccc(/C=C\c2ccc3c(c2)OCO3)c([N+](=O)[O-])c1 | 18.7 µM (inactive) | 8.43 µM (inactive) | 14.2 µM (inactive) | 21.2 µM (inactive) | 17.5 µM (inactive) | 17.1 µM (inactive) | 16.4 µM (inactive) | 12.7 µM (inactive) | 13 µM (inactive) | 44.1 µM (inactive) | 17.3 µM (inactive) |  | 8 µM (inactive) | 16.6 µM (inactive) | 20.1 µM (inactive) | 14.5 µM (inactive) | 23 µM (inactive) | 1.86 µM (inactive) | 29.2 µM (inactive) | 15.3 µM (inactive)
7 | COc1ccc2[nH]c3c(c2c1)CC(=O)N1CCC[C@H](C1)CC31OCCCO1 | 77.1 µM (inactive) | > 100 µM (inactive) | > 100 µM (inactive) | 55 µM (inactive) | > 100 µM (inactive) | > 100 µM (inactive) | > 100 µM (inactive) |  | > 100 µM (inactive) | > 100 µM (inactive) | > 100 µM (inactive) | > 100 µM (inactive) | > 100 µM (inactive) | > 100 µM (inactive) | > 100 µM (inactive) | > 100 µM (inactive) | > 100 µM (inactive) | > 100 µM (inactive) | > 100 µM (inactive) | > 100 µM (inactive)
